# Experimental data: US10710996B2, “Pyrido-azaheterecydic compound and preparation method and use thereof” (SHANGHAI INSTITUTE OF MATERIA MEDICA, CHINESE ACADEMY OF …, priority 2015, dated 2020)
# Tests used:
# [1] = system: EBC-1 cells; test: Inhibition of c-Met-mediated EBC-1 cell proliferation (SRB staining); assay type: cell-based; details: Homo sapiens, 72 hours treatment
# Description: The inhibitory effect of the compounds on the growth of non-small cell cancer EBC-1 cell (a cell line in which Met is continually activated due to the amplification of MET gene, and is a Met-dependent tumor cell line) was measured by sulforhodamine B (SRB) staining assay. A certain amount of EBC-1 cells in their logarithmic growth phase were seeded in 96-well plates at 90 μL per well and cultured overnight, then 10 μL of different concentrations of compounds or solvent control were added thereto, three wells for each concentration. After treated by the compound for 72 hours, the adherent cells were removed of culture medium and fixed with 10% (w/v) trichloroacetic acid (100 μL/well) at 4° C. for 1 hr followed by rinsing with distilled water five times. After drying at room temperature, 100 μL of SRB solution (dissolved in 1% glacial acetic acid at 4 mg/mL) was added to each well to incubate and stain the cells for 15 min at room temperature, then unbound SRB was washed off with 1% glacial acetic acid for five times. After drying at room temperature, 100 μL of 10 mM Tris solution was added to each well. The optical density (OD value) at 515 nm was read on a VERSMax microplate reader. […] The experiment was repeated twice. The IC50 data was calculated as a range based on the test results of concentrations set in the initial screening test.
# [2] = biological target: T1, c-Met kinase (Homo sapiens, UniProt P08581); test: Inhibitory effect on c-Met kinase activity at molecular level (ELISA); assay type: biochemical;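 also: recombinant c-Met kinase domain with 5 µM ATP, 1 h at 37 °C, substrate phosphorylation detected by anti-phosphotyrosine PY99 ELISA at 490 nm versus DMSO negative control, ATP-free wells as blank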
# T1 construct: c-Met kinase domain recombinant protein diluted with 49 μL of the reaction buffer was added
# T1 sequence (P08581 1078-1345 limits assumed): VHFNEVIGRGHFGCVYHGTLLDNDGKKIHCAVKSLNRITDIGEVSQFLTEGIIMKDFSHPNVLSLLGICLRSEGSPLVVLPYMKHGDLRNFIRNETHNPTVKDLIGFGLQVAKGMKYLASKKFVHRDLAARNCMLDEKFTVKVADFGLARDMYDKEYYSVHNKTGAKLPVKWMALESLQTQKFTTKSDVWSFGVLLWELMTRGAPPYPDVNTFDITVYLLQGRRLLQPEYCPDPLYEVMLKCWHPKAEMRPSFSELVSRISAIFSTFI
# Description: Experiment for Preliminarily Evaluating the Inhibitory Effect on the Activity of Receptor Tyrosine Kinase c-Met at Molecular Level
# After discarding the liquid in the wells, the plate was washed with T-PBS (0.1% Tween-20 in PBS) in an amount of 200 μL/well three times, each for 5 minutes. The ELISA plate was dried in an oven at 37° C. for 1-2 hours. 50 μl of adenosine triphosphate (ATP) solution diluted with reaction buffer (50 mM 4-hydroxyethylpiperazine ethanesulfonic acid (HEPES) pH 7.4, 50 mM MgCl2, 0.5 mM MnCl2, 0.2 mM Na3VO4, 1 mM dithiothreitol (DTT)) to a final concentration of 5 μM was added to each well. The compounds were diluted to an appropriate concentration with DMSO (1 μL/well) or a solution containing DMSO in a corresponding concentration (negative control well), and then c-Met kinase domain recombinant protein diluted with 49 μL of the reaction buffer was added therein to initiate the reaction, with two ATP-free control wells for each test. The plate was placed in a shaker (100 rpm) at 37° C. for reacting 1 hour, and washed with T-PBS three times. Primary antibody PY99 diluent was added in an amount of 100 μL/well to allow the reaction in a shaker at 37° C. for 0.5 hour, and then the plate was washed with T-PBS three times. Then the secondary antibody horseradish peroxidase labeled goat anti-mouse IgG diluent was added in an amount of 100 μL/well, and the plate was placed in a shaker at 37° C. for reacting 0.5 hour, and then washed with T-PBS three times. 2 mg/ml of o-phenylenediamine (OPD) coloring solution (diluted with 0.1 M citric acid-sodium citrate buffer (pH=5.4) containing 0.03% H2O2) was then added at 100 μL/well and reacted at 25° C. for 1-10 min with light blocked (ultrasound was required to dissolve OPD, the coloring solution was prepared when needed). The reaction was stopped by adding 2 M of H2SO4 in an amount of 50 μL/well, and a wavelength-adjustable microplate reader SPECTRA MAX 190 was read at 490 nm.
# The inhibition rate of the sample was calculated by the following equation:
IC50 [2] [nM],Compound,IC50 [1] [nM]
1 to 10,"CS(=O)(=O)n1cc(-c2cc3nccc(Oc4ccc(NC(=O)C5(C(=O)Nc6ccc(F)cc6)CC5)cc4F)c3cn2)cn1 [Compound 40S, N-(3-fluoro-4-((7-(1-(methylsulfonyl)-1H-pyrazol-4-yl)-1,6-naphthyridin-4-yl)oxy)phenyl)-N-(4-fluorophenyl) cyclopropyl-1,1-dicarboxamide]",10 to 100
1 to 10,"COc1cc2nccc(Oc3ccc(NC(=O)C4(C(=O)Nc5ccc(F)cc5)CC4)cc3F)c2cn1 [Compound 3S, N-(4-((7-methoxy-1,6-naphthyridin-4-yl)oxy)-3-fluorophenyl)-N-(4-fluorophenyl)cyclopropyl-1,1-dicarboxamide]",100 to 1000
1000 to 10000,"O=C(Nc1ccc(F)cc1)C1(C(=O)Nc2ccc(Oc3ccnc4cc(Cl)ncc34)c(F)c2)CC1 [Compound 1S, N-(4-((7-chloro-1,6-naphthyridin-4-yl)oxy)-3-fluorophenyl)-N-(4-fluorophenyl) cyclopropyl-1,1-dicarboxamide]",100 to 1000
1 to 10,"Cn1cc(-c2cc3nccc(Oc4ccc(NC(=O)C5(C(=O)Nc6ccc(F)cc6)CC5)cc4F)c3cn2)cn1 [Compound 38S, N-(3-fluoro-4-((7-(1-methyl-1H-pyrazol-4-yl)-1,6-naphthyridin-4-yl)oxy)phenyl)-N-(4-fluorophenyl)cyclopropyl-1,1-dicarboxamide]",1 to 10
1 to 10,"CN1CCC(COc2cc3nccc(Oc4ccc(NC(=O)C5(C(=O)Nc6ccc(F)cc6)CC5)cc4F)c3cn2)CC1 [Compound 9S, N-(3-fluoro-4-((7-((1-methylpiperidin-4-yl)methoxy)-1,6-naphthyridin-4-yl)oxy)phenyl)-N-(4-fluorophenyl) cyclopropyl-1,1-dicarboxamide]",10 to 100
1 to 10,"Cn1cc(-c2cc3nccc(Oc4ccc(NC(=O)c5c[nH]cc(-c6ccc(F)cc6)c5=O)cc4F)c3cn2)cn1 [Compound 54S, N-(3-fluoro-4-((7-(1-methyl-1H-pyrazol-4-yl)-1,6-naphthyridin-4-yl)oxy)phenyl)-5-(4-fluorophenyl)-4-oxo-1,4-dihydropyridine-3-carboxamide]",10 to 100
1 to 10,"O=C1COCCN1CCOc1cc2nccc(Oc3ccc(NC(=O)C4(C(=O)Nc5ccc(F)cc5)CC4)cc3F)c2cn1 [Compound 37S, N-(3-fluoro-4-((7-(2-(3-oxomorpholino)ethoxy)-1,6-naphthyridin-4-yl)oxy)phenyl)-N-(4-fluorophenyl) cyclopropyl-1,1-dicarboxamide]",10 to 100
1 to 10,"CC(C)n1cc(-c2cc3nccc(Oc4ccc(NC(=O)C5(C(=O)Nc6ccc(F)cc6)CC5)cc4F)c3cn2)cn1 [Compound 41S, N-(3-fluoro-4-((7-(1-isopropyl-1H-pyrazol-4-yl)-1,6-naphthyridin-4-yl)oxy)phenyl)-N-(4-fluorophenyl) cyclopropyl-1,1-dicarboxamide]",1 to 10
10 to 100,"O=C(Nc1ccc(F)cc1)C1(C(=O)Nc2ccc(Oc3ccnc4nc(NCCCN5CCOCC5)cnc34)c(F)c2)CC1 [Compound 62S, N-(3-fluoro-4-((3-((3-morpholinopropyl)amino)pyrido[2,3-b]pyrazin-8-yl)oxy)phenyl)-N-(4-fluorophenyl) cyclopropyl-1,1-dicarboxamide]",1000 to 10000
1 to 10,"O=C(Nc1ccc(Oc2ccnc3cc(OCCN4CCOCC4)ncc23)c(F)c1)c1c[nH]cc(-c2ccc(F)cc2)c1=O [Compound 22S, N-(3-fluoro-4-((7-(2-morpholinoethoxy)-1,6-naphthyridin-4-yl)oxy)phenyl)-5-(4-fluorophenyl)-4-oxo-1,4-dihydropyridine-3-carboxamide]",10 to 100
1 to 10,"O=C(Nc1ccc(F)cc1)C1(C(=O)Nc2ccc(Oc3ccnc4cc(-c5cn[nH]c5)ncc34)c(F)c2)CC1 [Compound 39S, N-(4-((7-(1H-pyrazol-4-yl)-1,6-naphthyridin-4-yl)oxy)-3-fluorophenyl)-N-(4-fluorophenyl)cyclopropyl-1,1-dicarboxamide]",1 to 10
1 to 10,"O=C(Nc1ccc(F)cc1)C1(C(=O)Nc2ccc(Oc3ccnc4cc(OCCN5CCOCC5)ncc34)cc2)CC1 [Compound 12S, N-(4-fluorophenyl)-N-(4-((7-(2-morpholinoethoxy)-1,6-naphthyridin-4-yl)oxy)phenyl)cyclopropyl-1,1-dicarboxamide]",100 to 1000
100 to 1000,O=C(Nc1ccc(F)cc1)C1(C(=O)Nc2ccc(Oc3ccnc4ncc(N5CCOCC5)nc34)c(F)c2)CC1 [Compound 58S],1000 to 10000
1 to 10,"O=C(Nc1ccc(F)cc1)C1(C(=O)Nc2ccc(Oc3ccnc4cc(-c5ccncc5)ncc34)c(F)c2)CC1 [Compound 46S, N-(3-fluoro-4-((7-(pyridin-4-yl)-1,6-naphthyridin-4-yl)oxy)phenyl)-N-(4-fluorophenyl)cyclopropyl-1,1-dicarboxamide]",100 to 1000
100 to 1000,O=C(Nc1ccc(F)cc1)C1(C(=O)Nc2ccc(Oc3ccnc4ncc(Cl)nc34)c(F)c2)CC1 [Compound 56S],1000 to 10000
1 to 10,"O=C(Nc1ccc(F)c(F)c1)C1(C(=O)Nc2ccc(Oc3ccnc4cc(OCCN5CCOCC5)ncc34)c(F)c2)CC1 [Compound 23S, N-(3,4-difluorophenyl)-N-(3-fluoro-4-((7-(2-morpholinoethoxy)-1,6-naphthyridin-4-yl)oxy)phenyl) cyclopropyl-1,1-dicarboxamide]",100 to 1000
1 to 10,"O=C(Nc1ccc(F)cc1)C1(C(=O)Nc2ccc(Oc3ccnc4cc(-c5ccc(F)c(F)c5)ncc34)c(F)c2)CC1 [Compound 49S, N-(3-fluoro-4-((7-(3,4-difluorophenyl)-1,6-naphthyridin-4-yl)oxy)phenyl)-N-(4-fluorophenyl)cyclopropyl-1,1-dicarboxamide]",10 to 100
1 to 10,"CN(C)c1cc2nccc(Oc3ccc(NC(=O)C4(C(=O)Nc5ccc(F)cc5)CC4)cc3F)c2cn1 [Compound 2S, N-(4-((7-(dimethylamino)-1,6-naphthyridin-4-yl)oxy)-3-fluorophenyl)-N-(4-fluorophenyl)cyclopropyl-1,1-dicarboxamide]",10 to 100
1000 to 10000,"O=C(Nc1ccc(F)cc1)C1(C(=O)Nc2ccc(Oc3ccnc4ncc(N5CCNCC5)nc34)c(F)c2)CC1 [Compound 65S, N-(4-((2-piperazinyl-pyrido[2,3-b]pyrazin-8-yl)oxy)-3-fluorophenyl)-N-(4-fluorophenyl)cyclopropyl-1,1-dicarboxamide]",1000 to 10000
1000 to 10000,"O=C(Nc1ccc(F)cc1)C1(C(=O)Nc2ccc(Oc3ccnc4ncc(OCCN5CCOCC5)nc34)c(F)c2)CC1 [Compound 67S, N-(3-fluoro-4-((2-(2-morpholinoethoxy)pyrido[2,3-b]pyrazin-8-yl)oxy)phenyl)-N-(4-fluorophenyl)cyclopropyl-1,1-dicarboxamide]",1000 to 10000
1 to 10,"O=C(Nc1ccc(Oc2ccnc3cc(OCCN4CCOCC4)ncc23)c(F)c1)c1c[nH]cc(-c2ccccc2)c1=O [Compound 20S, N-(3-fluoro-4-((7-(2-morpholinoethoxy)-1,6-naphthyridin-4-yl)oxy)phenyl)-4-oxo-5-phenyl-1,4-dihydropyridine-3-carboxamide]",10 to 100
1 to 10,"O=C(Nc1ccc(F)cc1)C1(C(=O)Nc2ccc(Oc3ccnc4cc(-c5cncnc5)ncc34)c(F)c2)CC1 [Compound 47S, N-(3-fluoro-4-((7-(pyrimidin-5-yl)-1,6-naphthyridin-4-yl)oxy)phenyl)-N-(4-fluorophenyl)cyclopropyl-1,1-dicarboxamide]",10 to 100
10 to 100,"CCN1CCC(Nc2cc3nccc(Oc4ccc(NC(=O)c5ccnn(-c6ccc(F)cc6)c5=O)cc4F)c3cn2)C(F)C1 (stereo not shown) [Compound 35S, N-(4-((7-((1-ethyl-3-fluoropiperidin-4-yl)amino)-1,6-naphthyridin-4-yl)oxy)-3-fluorophenyl)-2-(4-fluorophenyl)-3-oxo-2,3-dihydropyridazine-4-carboxamide]",–
–,"CN1CCN(CCOc2cnc3nccc(Oc4ccc(NC(=O)C5(C(=O)Nc6ccc(F)cc6)CC5)cc4F)c3n2)CC1 [Compound 66S, N-(3-fluoro-4-((2-(2-(4-methylpiperazin-1-yl)ethoxy)pyrido[2,3-b]pyrazin-8-yl)oxy)phenyl)-N-(4-fluorophenyl) cyclopropyl-1,1-dicarboxamide]",1000 to 10000
10 to 100,"O=C(Nc1ccc(F)cc1)C1(C(=O)Nc2ccc(Oc3ccnc4c(Br)c(OCCN5CCOCC5)ncc34)c(F)c2)CC1 [Compound 6S, N-(4-((8-bromo-7-(2-morpholinoethoxy)-1,6-naphthyridin-4-yl)oxy)-3-fluorophenyl)-N-(4-fluorophenyl) cyclopropyl-1,1-dicarboxamide]",–
100 to 1000,Nc1ccc(Oc2ccnc3cc(OCCN4CCOCC4)ncc23)c(F)c1 [Compound 5S],–
10 to 100,"O=C(Nc1ccc(Oc2ccnc3c(Br)c(OCCN4CCOCC4)ncc23)c(F)c1)c1c[nH]cc(-c2ccc(F)cc2)c1=O [Compound 21S, N-(4-((8-bromo-7-(2-morpholinoethoxy)-1,6-naphthyridin-4-yl)oxy)-3-fluorophenyl)-5-(4-fluorophenyl)-4-oxo-1,4-dihydropyridine-3-carboxamide]",–
